From patent US10501425B2, “Microbiocidal oxadiazole derivatives” (SYNGENTA PARTICIPATIONS AG, priority 2015, dated 2019)
Several values for one entry are separate records, joined by “and”; a condition that tells them apart may be missing. Identical values can stand only once.

How the values were obtained:
[1] = tested on: Puccinia recondita f. Sp. Tritici; assay: Puccinia recondita f. sp. tritici / wheat / leaf disc preventative (brown rust); type: in vivo; settings: foliar, 200 ppm in the applied formulation, wheat leaf segments cv. Kanzler, preventative (inoculated 1 day after application), compared to untreated, read-out: disease control
How it was run: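 Wheat cv. Kanzler leaf segments on agar sprayed with diluted compound, inoculated with brown rust spores 1 day later. Kept at 19° C., 75% rh, 12 h light/dark; percent disease control versus untreated segments scored 7 to 9 days after application, compounds tested at 200 ppm.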

[2] = tested on: Puccinia recondita f. Sp. Tritici; assay: Puccinia recondita f. sp. tritici / wheat / leaf disc curative (brown rust); type: in vivo; settings: foliar, 24 h, 200 ppm in the applied formulation, wheat leaf segments cv. Kanzler, curative (applied 1 day after inoculation), compared to untreated, read-out: disease control
How it was run: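 Compounds, prepared from DMSO solutions of at most 10 mg/ml and diluted just before spraying, are applied curatively to inoculated Kanzler wheat leaf segments. Segments are incubated at 19° C and 75% RH in a climate cabinet; disease control relative to untreated is evaluated 6 to 8 days later.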

[3] = tested on: Phakopsora pachyrhizi; assay: Phakopsora pachyrhizi / soybean / leaf disc preventative (Asian soybean rust); type: in vivo; settings: foliar, 200 ppm in the applied formulation, soybean leaf disks, compared to untreated, read-out: disease control
How it was run: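 Read-out is percent disease control relative to untreated check discs, assessed once untreated discs show adequate disease, 12 to 14 days after application. Compounds, tested at 200 ppm in the applied formulation, are sprayed onto soybean leaf discs one day before inoculation with a spore suspension.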

[4] = tested on: Glomerella lacenarium (Colletotrichum lagenarium); assay: Glomerella lagenarium liquid culture / cucumber / preventative (anthracnose); type: cell-based; settings: Colletotrichum orbiculare; 20 ppm in the applied formulation; liquid culture (PDB), growth inhibition measured photometrically 3 to 4 days after application; compared to untreated; read-out: disease control
How it was run: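 Conidia from cryogenic storage were mixed into potato dextrose broth. This was added to compound diluted from DMSO into 0.025% Tween20, tested at 20 ppm. Plates were incubated in the dark at 24 °C and 96% relative humidity, and growth was read photometrically after 2–7 days as % activity versus untreated check.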

Row | Compound | pest or weed control at 200 ppm [1] [%] | pest or weed control at 200 ppm [2] [%] | pest or weed control at 200 ppm [3] [%] | inhibition of growth at 20 ppm [4] [%] | melting point
1 | COCC(=O)NCc1ccc(-c2noc(C(F)(F)F)n2)cc1 [Compound 1.25, 2-methoxy-N-[[4-[5-(trifluoromethyl)-1,2,4-oxadiazol-3-yl]phenyl]methyl]acetamide] | ≥ 80 | ≥ 80 | ≥ 80 | ≥ 80 | 127 to 128 °C
2 | CCC(=O)NCc1ccc(-c2noc(C(F)(F)F)n2)cc1F [Compound 1.26, N-[[2-fluoro-4-[5-(trifluoromethyl)-1,2,4-oxadiazol-3-yl]phenyl]methyl]propanamide] | ≥ 80 | ≥ 80 | ≥ 80 | ≥ 80 | 99 to 110 °C
3 | O=C(CO)NCc1ccc(-c2noc(C(F)(F)F)n2)cc1 [Compound 1.27, 2-hydroxy-N-[[4-[5-(trifluoromethyl)-1,2,4-oxadiazol-3-yl]phenyl]methyl]acetamide] | ≥ 80 | ≥ 80 |  | ≥ 80 | 107 to 112 °C
4 | CC(O)C(=O)NCc1ccc(-c2noc(C(F)(F)F)n2)cc1 (stereo not shown) [Compound 1.28, 2-hydroxy-N-[[4-[5-(trifluoromethyl)-1,2,4-oxadiazol-3-yl]phenyl]methyl]propanamide] | ≥ 80 | ≥ 80 | ≥ 80 | ≥ 80 | 90 to 94 °C
5 | CCC(=O)NCCc1ccc(-c2noc(C(F)(F)F)n2)cc1 [Compound 1.29, N-[2-[4-[5-(trifluoromethyl)-1,2,4-oxadiazol-3-yl]phenyl]ethyl]propanamide] | ≥ 80 | ≥ 80 | ≥ 80 | ≥ 80 | 133.6 to 135 °C and 133 to 145 °C
6 | CCC(=O)NCc1ccc(-c2noc(C(F)(F)F)n2)cc1Cl [Compound 1.32, N-[[2-chloro-4-[5-(trifluoromethyl)-1,2,4-oxadiazol-3-yl]phenyl]methyl]propanamide] | ≥ 80 |  | ≥ 80 | ≥ 80 | 126 to 130 °C
7 | CC(OC(F)F)C(=O)NCc1ccc(-c2noc(C(F)(F)F)n2)cc1 (stereo not shown) [Compound 1.33, 2-(difluoromethoxy)-N-[[4-[5-(trifluoromethyl)-1,2,4-oxadiazol-3-yl]phenyl]methyl]propanamide] | ≥ 80 | ≥ 80 | ≥ 80 | ≥ 80 | 66 to 70 °C
8 | CCC(=O)NCc1ccc(-c2noc(C(F)(F)F)n2)c(F)c1 [Compound 1.34, N-[[3-fluoro-4-[5-(trifluoromethyl)-1,2,4-oxadiazol-3-yl]phenyl]methyl]propanamide] | ≥ 80 | ≥ 80 | ≥ 80 | ≥ 80 | 108 to 110 °C
9 | CCC(=O)NCc1ccc(-c2noc(C(F)(F)F)n2)c(F)c1F [Compound 1.54, N-[[2,3-difluoro-4-[5-(trifluoromethyl)-1,2,4-oxadiazol-3-yl]phenyl]methyl]propanamide] | ≥ 80 | ≥ 80 | ≥ 80 | ≥ 80 | 112 to 118 °C
10 | CCC(=O)NC(C)(C)c1ccc(-c2noc(C(F)(F)F)n2)cc1 [Compound 1.93, N-[1-methyl-1-[4-[5-(trifluoromethyl)-1,2,4-oxadiazol-3-yl]phenyl]ethyl]propanamide] | ≥ 80 | ≥ 80 | ≥ 80 | ≥ 80 | 142 to 146 °C
11 | COCCC(=O)NC(C)(C)c1ccc(-c2noc(C(F)(F)F)n2)cc1 [Compound 1.94, 3-methoxy-N-[1-methyl-1-[4-[5-(trifluoromethyl)-1,2,4-oxadiazol-3-yl]phenyl]ethyl]propanamide] | ≥ 80 | ≥ 80 | ≥ 80 | ≥ 80 | 94 to 103 °C
12 | COCC(=O)NC1(c2ccc(-c3noc(C(F)(F)F)n3)cc2)CC1 [Compound 1.96, 2-methoxy-N-[1-[4-[5-(trifluoromethyl)-1,2,4-oxadiazol-3-yl]phenyl]cyclopropyl]acetamide] | ≥ 80 | ≥ 80 | ≥ 80 | ≥ 80 | 95 to 99 °C
13 | O=C(COC(F)F)NCc1ccc(-c2noc(C(F)(F)F)n2)cc1 [Compound 1.97, 2-(difluoromethoxy)-N-[[4-[5-(trifluoromethyl)-1,2,4-oxadiazol-3-yl]phenyl]methyl]acetamide] | ≥ 80 | ≥ 80 | ≥ 80 | ≥ 80 | 92 to 100 °C
14 | COCCC(=O)NC1(c2ccc(-c3noc(C(F)(F)F)n3)cc2)CC1 [Compound 1.98, 3-methoxy-N-[1-[4-[5-(trifluoromethyl)-1,2,4-oxadiazol-3-yl]phenyl]cyclopropyl]propanamide] | ≥ 80 | ≥ 80 |  | ≥ 80 | 113 to 118 °C
15 | CCC(=O)NC1(c2ccc(-c3noc(C(F)(F)F)n3)cc2)CC1 [Compound 1.99, N-[1-[4-[5-(trifluoromethyl)-1,2,4-oxadiazol-3-yl]phenyl]cyclopropyl]propanamide] | ≥ 80 | ≥ 80 | ≥ 80 | ≥ 80 | 121 to 128 °C
16 | CCC(=O)NC(C#N)c1ccc(-c2noc(C(F)(F)F)n2)cc1 (stereo not shown) [Compound 1.100, N-[cyano-[4-[5-(trifluoromethyl)-1,2,4-oxadiazol-3-yl]phenyl]methyl]propanamide] | ≥ 80 | ≥ 80 | ≥ 80 | ≥ 80 | 185 to 186 °C
17 | CC(=O)NCc1ccc(-c2noc(C(F)(F)F)n2)cc1 [Compound 1.101, N-[[4-[5-(trifluoromethyl)-1,2,4-oxadiazol-3-yl]phenyl]methyl]acetamide] | ≥ 80 | ≥ 80 | ≥ 80 | ≥ 80 | 130 to 135 °C
18 | CC(C)(O)C(=O)NCc1ccc(-c2noc(C(F)(F)F)n2)cc1 [Compound 1.104, 2-hydroxy-2-methyl-N-[[4-[5-(trifluoromethyl)-1,2,4-oxadiazol-3-yl]phenyl]methyl]propanamide] | ≥ 80 | ≥ 80 |  | ≥ 80 | 95 to 98 °C
19 | COC(C)C(=O)NCc1ccc(-c2noc(C(F)(F)F)n2)nc1 (stereo not shown) [Compound 1.105, 2-methoxy-N-[[6-[5-(trifluoromethyl)-1,2,4-oxadiazol-3-yl]-3-pyridyl]methyl]propanamide] | ≥ 80 | ≥ 80 |  | ≥ 80 | 99 to 103 °C
20 | CC(C)C(=O)NCc1ccc(-c2noc(C(F)(F)F)n2)nc1 [Compound 1.106, 2-methyl-N-[[6-[5-(trifluoromethyl)-1,2,4-oxadiazol-3-yl]-3-pyridyl]methyl]propanamide] | ≥ 80 | ≥ 80 |  |  | 151 to 153 °C
21 | CC(C)(C)OC(=O)NCCc1ccc(-c2noc(C(F)(F)F)n2)cc1 [Compound 2.1, tert-butyl N-[2-[4-[5-(trifluoromethyl)-1,2,4-oxadiazol-3-yl]phenyl]ethyl]carbamate] | ≥ 80 | ≥ 80 |  | ≥ 80 | 81 to 83 °C and 81 to 83.1 °C
22 | CCOCCOC(=O)NCc1ccc(-c2noc(C(F)(F)F)n2)cc1C(F)(F)F [Compound 2.2, 2-ethoxyethyl N-[[2-(trifluoromethyl)-4-[5-(trifluoromethyl)-1,2,4-oxadiazol-3-yl]phenyl]methyl]carbamate] |  |  |  | ≥ 80 | 60 to 66 °C
23 | CCCNC(=O)NCc1ccc(-c2noc(C(F)(F)F)n2)cc1 [Compound 3.6, 1-propyl-3-[[4-[5-(trifluoromethyl)-1,2,4-oxadiazol-3-yl]phenyl]methyl]urea] | ≥ 80 |  | ≥ 80 | ≥ 80 | 174.1 to 176.4 °C
